Data: patent publication US20110076331A1, “Use of Deuterium Oxide as an Elastase Inhibitor” (priority 2008, published 2011)

Tests used:
[1] = test system: white New Zealand rabbits; test: Animal model for myocardial reperfusion damage (coronary artery ligature); format: in vivo, rabbit; details: intravenous D2O isotonic saline 15 minutes before or 25 minutes after reopening of the coronary artery; vs H2O-treated animals
Experimental: In an animal model for reperfusion damage a reduced blood supply to the heart muscle tissue was achieved by ligature of a coronary artery in male white New Zealand rabbits, which led to damage (Bidouard, J. P. et al.; SSR69071, an elastase inhibitor, reduces myocardial infarct size following ischemia reperfusion injury, Eur J Pharmacol. 2003; 461:49-52). By thoracotomy a side branch of the left coronary artery was closed by ligature for 30 minutes and then opened again in order to achieve reperfusion over 120 minutes. Before removal of the heart an ink bolus (pelican ink) was introduced to the ascending aorta. To investigate the effect of D2O on reperfusion damage the animals were divided into three groups of two animals each. Two groups received an intravenous treatment with D2O in the form of isotonic saline either 15 minutes before (experimental group 1) or 25 minutes after (experimental group 2) reopening of the coronary artery, the other group (control group) was treated with H2O as isotonic saline. After removal of the heart, unclamping of the aorta, formalin fixation and paraffin embedding the heart was investigated for homogeneity of ink distribution in the capillary system through three cross sections and by immunohistochemistry. The immunohistochemical detection of granulocytes occurred by a-naphthol chloroacetate esterase staining. […]

[2] = test system: Wistar rats; test: Animal model of infectious peritonitis (S. aureus ATCC 25923), peritoneal lavage; format: in vivo, rat; details: peritoneal lavage 4 hours after S. aureus, vs isotonic saline
Experimental: Male Wistar rats received a catheter for peritoneal dialysis and for induction of peritonitis and for further peritoneal dialysis. A purulent peritonitis was produced by introduction of a suspension of S. aureus ATCC 25923 (1×10^9 c.f.u. in 0.5 mL). After 4 hours peritoneal lavage was carried out either with isotonic saline or with isotonic […]. After the death of the animals, but at the latest after 24 hours, bacterial infestation and the inflammatory reaction in the peritoneum were investigated histologically.

[3] = test system: patients with type 1 sensitization and allergic rhinitis; test: Nasal spray in allergic rhinitis; format: in vivo, human; details: isotonic saline using 70% D2O, 6 times a day, 14 days, vs H2O group
Experimental: A solution with D2O was prepared accordingly for application as nasal spray. […] The number of sneezing attacks was determined and the intensity of runny nose and nasal itching measured by visual analog scales as parameters. For this purpose a patient diary was used.
A solution with D2O was prepared according to example 21 for use as nasal spray. […] The number of sneezing attacks was determined as parameter and the intensity of runny nose and nasal itching were measured by visual analog scales. For this purpose a patient diary was used.

[4] = test system: Wistar rats; test: Animal model of allergic conjunctivitis (chicken protein); format: in vivo, rat; details: D2O-based isotonic saline trickled together with chicken protein
Experimental: A corresponding animal model was used to test the efficacy of eye drops prepared with D2O (Minami et al., Biol. Pharm. Bull 28:473-476, 2005). In 6-week-old Wistar rats an allergy to chicken protein was produced by injection of chicken protein together with alum and 10^10 B. pertussis into the soles of the feet and then a booster with chicken protein in the back area. Before the experiment the animals were kept in a climatized cage and after 10 minutes of adaptation 5 μL chicken protein solution was trickled into each eye. The animals were then transferred to an observation cage and the scratching movements in the direction of the eyes counted over a period of 20 minutes. Hyperemia and conjunctival edema were then determined.
To investigate an effect of D2O on the symptoms caused by chicken protein either H2O- or D2O-based isotonic saline was trickled together with the chicken protein in a double-blind design.

[5] = test system: brown Norwegian rats; test: Animal model of allergic bronchial asthma (ovalbumin); format: in vivo, rat; details: aerosol of isotonic D2O solution for 6 days before ovalbumin aerosol; after 24 hours
Experimental: The effect of D2O in allergic asthma was presented in an animal model of 10-week-old brown Norwegian rats (Roumestan et al., Resp Res 8:35-46, 2007). Sensitization of the animals occurred by repeated intraperitoneal injection of ovalbumin. The animals were then introduced to a climatized cage and constantly treated with an aerosol of isotonic H2O or D2O solution for 6 days. Asthma triggering by an ovalbumin-containing aerosol then occurred. The change in airway resistance was then determined as parameter by barometric plethysmography on the living animals after 24 hours. A significant intensification of airway resistance was found in the H2O-treated group.

[6] = test system: patients with Wegener's disease; test: D2O infusions in Wegener's granulomatosis (open study); format: in vivo, human; details: 500 mL isotonic saline prepared with 70% D2O infused once a day over a week in addition to individual therapy; vs conventionally treated patients
Experimental: Activation of neutrophil granulocytes is assigned importance in the pathogenesis of Wegener granulomatosis. The disease activity can be determined by determining proteinase 3-antineutrophil cytoplasmic antibodies (PR3-ANCA).
In patients with Wegener's disease in an open study the effect of additional infusion of 500 mL of an isotonic saline solution prepared with 70% D2O was investigated once a day over a week in addition to individual systemic therapy in five patients. Determination of PR3-ANCA in the serum before and after 1 week after the last D2O infusion served as control parameter. Five patients in whom individual therapy was used exclusively without additional infusions served as comparison. […] This permits the conclusion that systemic use of D2O for adjunctive therapy of systemic vasculites is suitable.

[7] = test system: subjects with the minor form of RBA; test: Gel treatment of recurring benign aphthosis (RBA); format: in vivo, human; details: D2O gel (example 1) three times a day; three days after first application
Experimental: Eight volunteer subjects with the minor form of RBA (diameter of round to oval erosion is 3-5 mm) at locations of the oral mucosa readily accessible to optical inspection (and especially cheek mucosa and mucosa in the lower jaw area) were randomized into two groups of four subjects each (experimental group and control group) and the size (diameter) of the aphthae (initial value) was determined precisely at 0.5 mm optically. For size determination only the gray-covered eroded surface was considered and the red edge area was not considered. The first aphthosis symptoms of the subjects in both groups were at least 2 days old and at most 4 days old. The experimental group received a D2O gel prepared according to example 1 three times a day applied with an appropriate applicator to the erosion (aphtha). It was ensured that the applied gel covered the entire surface of the aphtha plus a 2-3 mm wide edge and was allowed to act at least for 5 minutes. The control group was treated similarly with an identical dose and application of an H2O prepared according to example 1. […] For the experimental group an average reduction in diameter relative to the initial value of 30±10% can be detected and in the control group an average increase in aphthae diameter by 15±10% was observed.

[2H]O[2H] [D2O, deuterium oxide]
heart muscle damage (granulocytes, capillary ink marking) [1]: significantly lower heart muscle damage
inflammatory activity in the peritoneum ([2]; histology): lower inflammatory activity
number of bacteria in the quantitative culture [2]: reduced number of bacteria
sneezing attacks, intensity of runny nose and nasal itching (recorded parameters) [3]: significant reduction of the recorded parameters
number of scratching movements in the eye direction ([4]; after 20 minutes, vs H2O): significant reduction in the number of scratching movements
hyperemia and edema ([4]; vs H2O group): reduced
change in airway resistance (barometric plethysmography) [5]: only a slight increase in airway resistance
PR3-ANCA values in the serum [6]: stronger reduction of PR3-ANCA values
average reduction in aphthae diameter relative to the initial value [7]: 30±10%
